# According to US11612574B2 (priority 2020, dated 2023):
# Tests used:
# sigma-2 receptor = sigma-2 receptor (Homo sapiens, UniProt Q5BJF2); settings: cited from earlier work
# SARS-CoV-2 [1] = settings: cited from earlier work
# sigma-1 receptor [2] = target: T1, sigma-1 receptor (Homo sapiens, UniProt Q99720); settings: cited from earlier work
# [3] = tested on: CD4+ and CD8+ lymphocytes; settings: cited from earlier work
# Candida albican = settings: in vivo; cited from earlier work
# sigma-1 receptor [4] = target: T1, sigma-1 receptor; settings: cited from earlier work; remark: listed apart in the source
# SARS-CoV-2 [5] = format: cell-based
# Calu-3 cells = assay: Cell death and viability of Calu-3 cells (cytotoxicity, no virus); format: cell-based, human
# Description: 4. Cytotoxicity assays were conducted in parallel, for these no virus was added.
# a. Cell viability: was assessed by staining cells with the ViaStain™ Calcein AM/Hoechst/PI Viability Kit (Nexcelom, Cat #CS5-V006-1) per manufacturer's instructions and imaging with the Celígo Imaging Cytometer (Nexcelom). Briefly, live and metabolically active cells were detected using the Calcein AM stain (Ex/Em: 488/520). Dead cells were detected using the propidium iodide stain (PI, Ex/Em: 493/636). Total number of cells were detected using the Hoechst-nuclear stain (Ex/Em: 352/461). Thus, cell viability was assessed by comparing live cells counts (normalized to total cell count) across treatment groups, and cell cytotoxicity was assessed through comparison of dead cell counts (normalized to total cells) across treatment groups.
# sigma = settings: non-selective sigma binding assay; cited from earlier work
# [6] = tested on: interleukin-1beta and TNF-alpha; settings: in vivo; cited from earlier work
# [7] = tested on: Vero E6 cells infected with SARS-CoV-2; assay: Neutral red cytoprotection/cytotoxicity in Vero E6 cells infected with SARS-CoV-2; settings: Vero E6, dose response
# T1 sequence (Q99720 whole entry, species assumed): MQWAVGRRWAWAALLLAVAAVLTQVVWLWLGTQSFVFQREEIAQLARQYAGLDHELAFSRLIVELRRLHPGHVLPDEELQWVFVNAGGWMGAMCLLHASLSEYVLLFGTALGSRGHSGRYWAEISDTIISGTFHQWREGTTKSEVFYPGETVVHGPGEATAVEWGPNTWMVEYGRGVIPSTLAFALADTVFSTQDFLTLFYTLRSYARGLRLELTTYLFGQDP
# Chain of sigma-2 receptor (Q5BJF2 whole entry): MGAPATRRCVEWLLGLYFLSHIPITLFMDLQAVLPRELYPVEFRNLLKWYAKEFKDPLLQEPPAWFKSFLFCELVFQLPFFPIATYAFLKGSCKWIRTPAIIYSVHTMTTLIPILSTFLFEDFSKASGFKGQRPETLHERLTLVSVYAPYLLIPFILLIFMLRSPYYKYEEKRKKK
smiles,measurement,setting,value
O=C(CCCN1CCC(O)(c2ccc(Cl)cc2)CC1)c1ccc(F)cc1 [Haloperidol],binding/activity at sigma-2 receptor,sigma-2 receptor,low nM range
same,inhibition of SARS-CoV-2 in vitro,SARS-CoV-2 [1],inhibit
CCN(CCO)CCCC(C)Nc1ccnc2cc(Cl)ccc12 (centres unmarked) [hydroxy-chloroquine],inhibition of SARS-CoV-2 in vitro,SARS-CoV-2 [1],inhibit
CCN[C@@H](C)Cc1cccc(C(F)(F)F)c1 (racemic) [dexfenfluramine],sigma-1 receptor modulation,sigma-1 receptor [2],positive modulators
same,number of CD4+ and CD8+ lymphocytes that produced IFN-gamma,[3]; HIV+ or HIV- patients,increased
same,number of CD8+ lymphocytes that produce TNF-alpha,[3]; HIV+ patients,increased
same,amount of IL-2 produced by CD4+ and CD8+ lymphocytes,[3]; lymphocytes from HIV+ patients,increased
same,CD3+ and CD8+ lymphocytes,Candida albican,marked increase
same,numbers of NK1.1+ cells,Candida albican,modest increase
CCN(CC)CCCC(C)Nc1ccnc2cc(Cl)ccc12 (centres unmarked) [Chloroquine],binding/activity at sigma-2 receptor,sigma-2 receptor,low uM activity
same,binding/activity at sigma-1 receptor,sigma-1 receptor [4],mid-nM activity
"CCNC(C)Cc1cccc(C(F)(F)F)c1 (racemic) [fenfluramine, (RS)—N-ethyl-1-[3-(trifluoromethyl)phenyl]propan-2-amine]",average viral replication (mNeonGreen fluorescence normalized to total cell count),SARS-CoV-2 [5],about 2·10^3
same,SARS-CoV-2 viral replication compared with control cells receiving only vehicle,"SARS-CoV-2 [5]; Calu-3 cells, 50 mM fenfluramine as printed, 72 hr",statistically significantly (p<0.0001) lower
same,cytotoxicity (cell death and viability versus controls),Calu-3 cells; 20 μg/ml,not cytotoxic
same,cytotoxicity (cell death and viability versus controls),Calu-3 cells; 40 μg/ml,cytotoxic
same,Ki,sigma,266 nM
same,sigma-1 receptor modulation,sigma-1 receptor [2],positive allosteric modulator
same,production of interleukin-1beta and TNF-alpha,[6],suppressed
same,"neutral red signal, virus infected cells","[7]; SARS-CoV-2 infected MOI 0.1, FIG. 4B",~0.2
same,"neutral red signal, uninfected cells","[7]; uninfected cells, FIG. 4B",~1.0
